The term inhibition denotes the drop in the measured response relative to a control, in per cent.

SMILES strings stand for the structures. Where a name gives a salt, the structure may show the parent alone.

We go through three molecules from patent US12403144B2, “HECT E3 ligase inhibitors and uses thereof” (IFOM FONDAZIONE ISTITUTO FIRC DI ONCOLOGIA MOLECOLARE, priority 2019, dated 2025).

The target of this assay is T1, untagged HECT of NEDD4 wild-type (WT) (E3 ligase) (Homo sapiens, UniProt P46934).
T1 construct: untagged HECT of NEDD4 wild-type (WT) (E3 ligase); made in house
T1 sequence (P46934 519-900 isoform P46934-4 limits assumed): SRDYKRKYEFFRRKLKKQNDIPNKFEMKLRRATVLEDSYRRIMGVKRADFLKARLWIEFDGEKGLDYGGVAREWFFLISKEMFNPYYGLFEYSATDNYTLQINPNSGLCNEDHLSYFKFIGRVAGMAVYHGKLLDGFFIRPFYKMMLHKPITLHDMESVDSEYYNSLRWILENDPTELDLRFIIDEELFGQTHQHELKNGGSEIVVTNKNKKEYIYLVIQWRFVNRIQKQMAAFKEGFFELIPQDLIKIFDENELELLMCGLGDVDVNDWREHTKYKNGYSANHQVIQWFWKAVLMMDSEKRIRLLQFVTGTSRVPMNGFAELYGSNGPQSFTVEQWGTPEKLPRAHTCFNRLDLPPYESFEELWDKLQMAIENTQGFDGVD
Nature of the assay: In vitro ubiquitination assay TR-FRET based (self-ubiquitination of NEDD4). In kind it is biochemical. Particulars: at 11 μM; pre-incubated for 1 hour; AUC of 120 minutes kinetic; read-out: percentages of inhibition (NEDD4). An outline of the steps: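 Mix of E1, His-UBE2D3 and untagged NEDD4 HECT (final 30, 350, 50 nM) with Eu-cryptate/Cy5/unlabelled ubiquitin in pH 7.6 Tris buffer, compounds (100–0.005 μM dilution series) pre-incubated 1 h, then started with ATP. 665/620 nm TR-FRET followed 120 min; % inhibition from AUC versus DMSO, no-ATP background.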
For `CC(=O)/C=C/CN(C)CCCCN1c2ccccc2CCc2ccc(Cl)cc21` [Compound 10, (E)-5-[4-(3-chloro-10,11-dihydro-5H-dibenzo[b,f]azepin-5-yl)butyl-methyl-amino]pent-3-en-2-one maleate], the inhibition at 11 µM was above 50%.
The same measure for `CCOC(=O)/C=C/CN(C)CCCCN1c2ccccc2CCc2ccc(Cl)cc21` [Compound 63, Ethyl (E)-4-{[4-(3-chloro-10,11-dihydro-5H-dibenzo[b,f]azepin-5-yl)butyl]-methyl-amino}but-2-enoate maleate]: above 50%; for `O=C(/C=C/CNCCCCN1c2ccccc2CCc2ccc(Cl)cc21)NOc1ccccc1` [Compound 82, (E)-4-[4-(3-chloro-10,11-dihydro-5H-dibenzo[b,f]azepin-5-yl)butylamino]-N-phenoxy-but-2-enamide maleate]: above 50%.
